Reference: the supplement of paper PMC13380429

Experiments:
[1] = tested on: Caco-2; assay: relative viability EC50 (midpoint between 100% and the lowest measured viability); higher = less toxic; conditions: 72 h
[2] = tested on: Vero E6; assay: as above; conditions: 72 h
[3] = tested on: U2OS; assay: as above; conditions: 72 h
[4] = tested on: HepG2; assay: as above; conditions: 72 h
[5] = tested on: Calu-3; assay: as above; conditions: 72 h
[6] = tested on: Caco-2; assay: drug sensitivity score (DSS) for viability; higher = more toxic; extreme values may be limits of the assay; conditions: 72 h
[7] = tested on: Vero E6; assay: as above; conditions: 72 h
[8] = tested on: U2OS; assay: as above; conditions: 72 h
[9] = tested on: HepG2; assay: as above; conditions: 72 h
[10] = tested on: Calu-3; assay: as above; conditions: 72 h
[11] = tested on: A549-ACE2 infected with SARS-CoV-2; assay: SARS-CoV-2 infection rate relative to DMSO; higher = more infection; conditions: 24 h
[12] = tested on: A549-ACE2; assay: drug-induced phospholipidosis relative to tamoxifen; higher = more phospholipidosis; conditions: 24 h
[13] = tested on: A549-ACE2 infected with SARS-CoV-2; assay: cell count relative to DMSO; higher = less toxic; conditions: 24 h
[14] = tested on: A549-ACE2 infected with SARS-CoV-2; assay: morphology score (similarity to uninfected cells); higher = more like uninfected cells; conditions: 24 h
[15] = tested on: Caco-2; assay: cell viability relative to DMSO; higher = less toxic; conditions: 72 h
[16] = tested on: Vero E6; assay: as above; conditions: 72 h
[17] = tested on: U2OS; assay: as above; conditions: 72 h
[18] = tested on: HepG2; assay: as above; conditions: 72 h
[19] = tested on: Calu-3; assay: as above; conditions: 72 h

Q: What does the source list for `C[C@H]1CCC/C=C/[C@@H]2C[C@H](O)C[C@H]2[C@H](O)/C=C/C(=O)O1` [brefeldin-A]?
A: relative viability EC50 [1]: 130 nM; relative viability EC50 [2]: 66 nM; relative viability EC50 [3]: 61.2 nM; relative viability EC50 [4]: 37.9 nM; relative viability EC50 [5]: 55.5 nM; drug sensitivity score [6]: 16.3; drug sensitivity score [7]: 25.7; drug sensitivity score [8]: 26.8; drug sensitivity score [9]: 25.6; drug sensitivity score [10]: 24.5; SARS-CoV-2 infection rate ([11]; 0.1 µM): 33%; SARS-CoV-2 infection rate ([11]; 0.3 µM): 42%; SARS-CoV-2 infection rate ([11]; 1 µM): 16%; SARS-CoV-2 infection rate ([11]; 3 µM): 30%; drug-induced phospholipidosis ([12]; 0.3 µM): -4.02%; drug-induced phospholipidosis ([12]; 0.833333 µM): -5.26%; drug-induced phospholipidosis ([12]; 3.33333 µM): -7.24%; drug-induced phospholipidosis ([12]; 10 µM): -7%; cell count ([13]; 0.1 µM): 108%; cell count ([13]; 0.3 µM): 52%; cell count ([13]; 1 µM): 38%; cell count ([13]; 3 µM): 35%; morphology score ([14]; 0.1 µM): 0.73; morphology score ([14]; 0.3 µM): 0.14; morphology score ([14]; 1 µM): 0.32; morphology score ([14]; 3 µM): 0.26; cell viability ([15]; 1 nM): 96.6%; cell viability ([15]; 10 nM): 89.7%; cell viability ([15]; 100 nM): 71.9%; cell viability ([15]; 1000 nM): 26.8%; cell viability ([15]; 10000 nM): 28.8%; cell viability ([16]; 1 nM): 95.3%; cell viability ([16]; 10 nM): 101%; cell viability ([16]; 100 nM): 28.4%; cell viability ([16]; 1000 nM): 3.5%; cell viability ([16]; 10000 nM): 3.3%; cell viability ([17]; 1 nM): 99.5%; cell viability ([17]; 10 nM): 99.3%; cell viability ([17]; 100 nM): 22.8%; cell viability ([17]; 1000 nM): 0.2%; cell viability ([17]; 10000 nM): 0.1%; cell viability ([18]; 1 nM): 95.6%; cell viability ([18]; 10 nM): 96.6%; cell viability ([18]; 100 nM): 21.9%; cell viability ([18]; 1000 nM): 14.2%; cell viability ([18]; 10000 nM): 14.6%; cell viability ([19]; 1 nM): 108%; cell viability ([19]; 10 nM): 97.1%; cell viability ([19]; 100 nM): 32.3%; cell viability ([19]; 1000 nM): 15.4%; cell viability ([19]; 10000 nM): 10.7%

Q: How did the drug sensitivity score [6] turn out when `O=S(=O)(c1cccc2cnccc12)N1CCCNCC1` [fasudil] was run?
A: Its drug sensitivity score is 0.

Q: And the drug sensitivity score [7]?
A: The drug sensitivity score was 0.

Q: And the drug sensitivity score [8]?
A: The drug sensitivity score was 0.

Q: And the drug sensitivity score [9]?
A: Its drug sensitivity score is 0.7.

Q: What about the drug sensitivity score [10] of the same compound?
A: Its drug sensitivity score is 0.

Q: What about the morphology score ([14]; 0.3 µM) of the same compound?
A: Its morphology score is 0.21.

Q: And the morphology score ([14]; 3 µM)?
A: The morphology score was 0.17.

Q: And the morphology score ([14]; 10 µM)?
A: Its morphology score is 0.3.

Q: What about the morphology score ([14]; 30 µM) of the same compound?
A: The morphology score was 0.09.

Q: With `CCCN(CCc1cccs1)[C@H]1CCc2c(O)cccc2C1` [rotigotine] as the compound, how does the “relative viability EC50” value [1] read?
A: Its value is greater than 10000 nM.

Q: And the “relative viability EC50” value [2]?
A: Its value is greater than 10000 nM.

Q: What about the “relative viability EC50” value [3] of the same compound?
A: The value was greater than 10000 nM.

Q: What about the “relative viability EC50” value [4] of the same compound?
A: Its value is greater than 10000 nM.

Q: And the “relative viability EC50” value [5]?
A: The value was greater than 10000 nM.

Q: And the drug sensitivity score [6]?
A: The drug sensitivity score was 0.

Q: What about the drug sensitivity score [7] of the same compound?
A: The drug sensitivity score was 0.

Q: What about the drug sensitivity score [8] of the same compound?
A: The drug sensitivity score was 0.

Q: What about the drug sensitivity score [9] of the same compound?
A: Its drug sensitivity score is 0.

Q: What about the drug sensitivity score [10] of the same compound?
A: The drug sensitivity score was 0.

Q: What about the cell viability ([15]; 1 nM) of the same compound?
A: The cell viability was 98.7%.

Q: And the cell viability ([15]; 10 nM)?
A: The cell viability was 95.7%.

Q: What about the cell viability ([15]; 100 nM) of the same compound?
A: The cell viability was 103%.

Q: And the cell viability ([15]; 1000 nM)?
A: Its cell viability is 101%.

Q: And the cell viability ([15]; 10000 nM)?
A: The cell viability was 103%.

Q: What about the cell viability ([16]; 1 nM) of the same compound?
A: Its cell viability is 93.4%.

Q: What about the cell viability ([16]; 10 nM) of the same compound?
A: Its cell viability is 97%.

Q: What about the cell viability ([16]; 100 nM) of the same compound?
A: Its cell viability is 90.1%.

Q: And the cell viability ([16]; 1000 nM)?
A: The cell viability was 98.5%.

Q: And the cell viability ([16]; 10000 nM)?
A: The cell viability was 98.7%.

Q: And the cell viability ([17]; 1 nM)?
A: The cell viability was 95%.

Q: And the cell viability ([17]; 10 nM)?
A: The cell viability was 98%.

Q: What about the cell viability ([17]; 100 nM) of the same compound?
A: The cell viability was 98.4%.

Q: And the cell viability ([17]; 1000 nM)?
A: The cell viability was 97%.

Q: What about the cell viability ([17]; 10000 nM) of the same compound?
A: Its cell viability is 96.6%.

Q: What about the cell viability ([18]; 1 nM) of the same compound?
A: The cell viability was 94.1%.

Q: What about the cell viability ([18]; 10 nM) of the same compound?
A: The cell viability was 91.7%.

Q: And the cell viability ([18]; 100 nM)?
A: The cell viability was 87%.

Q: And the cell viability ([18]; 1000 nM)?
A: The cell viability was 107%.

Q: What about the cell viability ([18]; 10000 nM) of the same compound?
A: The cell viability was 102%.

Q: What about the cell viability ([19]; 1 nM) of the same compound?
A: The cell viability was 105%.

Q: What about the cell viability ([19]; 10 nM) of the same compound?
A: The cell viability was 100%.

Q: What about the cell viability ([19]; 100 nM) of the same compound?
A: Its cell viability is 103%.

Q: And the cell viability ([19]; 1000 nM)?
A: Its cell viability is 100%.

Q: What about the cell viability ([19]; 10000 nM) of the same compound?
A: Its cell viability is 99.6%.
